The values that follow come from US7173018B2, “Phospholipid derivatives of non-steroidal anti-inflammatory drugs” (D-Pharm, Ltd., priority 1998, dated 2007).

Data set [1] is described as follows: Solubility measurements of lipid derivatives in water, saline, ethanol and octanol. As to conditions: for solubility: 22 °C; for Solubility (mg/ml) Saline / Solubility (mg/ml) Water: 22° C.; a) gel, b) suspension obtained after filtration through 0.45 μm filter.
Protocol: The solubility of several lipid derivatives of diclofenac, indomethacin, ibuprofen, naproxen and 6-methoxy-2-naphthylacetic acid was determined at room temperature (22° C.) in aqueous solutions (water and saline) and in organic solutions (ethanol and octanol). In addition, the partition coefficient (Pc) values for these compounds, i.e their distribution ratios between the organic and the aqueous phases (octanol/saline), were calculated.
Data set [2] can be described thus: Octanol/saline distribution (partition coefficient Pc), shake-flask technique. As to conditions: for log Pc (octanol/saline distribution coefficient): 22° C., shake-flask.
Protocol: In addition, the partition coefficient (Pc) values for these compounds, i.e their distribution ratios between the organic and the aqueous phases (octanol/saline), were calculated.
The distribution of the compounds between the organic and the aqueous phases was measured by the shake-flask technique. Five milliliters of octanol containing about 3 mg of the studied compound were mixed with 5 ml saline. The mixture was shaken overnight at 22° C. before the octanol and saline phases were separated. One ml from each phase was dissolved into an appropriate volume of ethanol so that the optical absorption of the obtained solution is in range of 0.1 to 1.0.
The coefficient Pc is calculated by the following ratio:
[formula] where Aoct is the optical absorption, at λmax, of the ethanol solution in which one ml of octanol phase is dissolved, V1 is the volume of this ethanol solution and l1 is the width (cm) of the cuvette used for measurement of the optical absorption.
Asal is the optical absorption, at λmax, of the ethanol solution in which the one ml of saline phase is dissolved, V2 is the volume of this ethanol solution and l2 is the width (cm) of the cuvette used for measurement of the optical absorption.
Data set [3] is described as follows: In vitro cleavage of DP-DFC to free diclofenac in rat brain homogenate. Format: in vitro ADME. The conditions noted are these: for Cleavage of diclofenac from its lipid conjugate: brain homogenate, 37° C., up to 6 hours. How it is done:
(§1) The ability of the compounds of the invention to be cleaved to yield free diclofenac, was studied in vitro in homogenates of rat brain and liver. Two compounds were tested: the prodrug 1-Stearoyl-2-{4-[2-(2,6-dichloroanilino)-phenylacetamido]butanoyl}-sn-glycero-3-phosphocholine (DP-DFC; Z=3), and the compound 1-Stearoyl-2-{3-[2-(2,6-dichloroanilino)-phenylacetamido]propanoyl}-sn-glycero-3-phosphatidylcholine (DP-DFC; Z=2), comprising, respectively, a bridging group having a total of 4 and 3 carbon atoms.
(§2) Liver and brain were surgically removed, under pentobarbitone anesthesia, from male Sabra rats weighing 250–280 g. About 1–1.5 g samples from each tissue were homogenized in PBS pH=7.4 (Dulbecco) at a ratio of 1:9 w/v of tissue to buffer.
(§3) DP-DFC was added to each homogenate to a final concentration of 40 μg/ml. The mixtures were incubated at 37° C. in shaking for 1, 2, 3 and 6 hours, and then were placed on ice to stop the reaction.
(§4) The amounts of free diclofenac in 1 ml samples from either the brain or liver homogenates were determined by reverse phase HPLC assay. The amount of protein in each sample was assayed by the Lowry method.
(§5) The result for each time point represents the average of five repetitions using tissues from five individual animals.
(§6) In order to evaluate the effect of temperature on the reaction, a parallel set of incubations was carried out at 4° C.

Data set [4] is described as follows: In vitro cleavage of DP-DFC to free diclofenac in rat liver homogenate. Type of data set: in vitro ADME. As to conditions: 37° C., up to 6 hours. How it is done:
as §1, §2, §3, §4, §5, §6

Converted amounts (≈) assume the structure as drawn.

One may read the solubility as the dissolved amount per volume that the medium holds. A higher solubility goes with a readily soluble substance. By logD is commonly meant the decadic logarithm of the distribution of all forms, ionised or not, between an organic phase and buffer at a given pH. A low value points to a more hydrophilic compound. Consider `CCCCCCCCCCCCCCCCCC(=O)OC[C@H](COP(=O)([O-])OCC[N+](C)(C)C)OC(=O)CCCCCNC(=O)Cc1c(C)n(C(=O)c2ccc(Cl)cc2)c2ccc(OC)cc12` [Indo n=5, 1-Stearoyl-2-{6-[1-(p-chlorobenzoyl)-5-methoxy-2-methyl-3-indolylacetamido]hexanoyl}-sn-glycero-3-phosphocholine], for which the solubility in data set [1] (saline, saline or isotonic) was approximately 10 µg/mL (≈ 10.2 µM); in data set [1] (water), less than 10 µg/mL. Also, the logD in data set [2] came to 3.2.

In the case of `CCCCCCCCCCCCCCCCCC(=O)OC[C@H](COP(=O)([O-])OCC[N+](C)(C)C)OC(=O)CCNC(=O)Cc1ccccc1Nc1c(Cl)cccc1Cl` [DCF n=2, 1-Stearoyl-2-{3-[2-(2,6-dichloroanilino)phenylacetamido]propanoyl}-sn-glycero-3-phosphocholine], the solubility was 2 µg/mL (≈ 2.29 µM) in data set [1] (saline, saline or isotonic) and 3 µg/mL (≈ 3.44 µM) in data set [1] (water). Moreover, the “Cleavage of diclofenac from its lipid conjugate” value in data set [3] and in data set [4] was “not” throughout. The same molecule yielded a logD in data set [2] of 2.8 ± 0.1.

Turning to `CCCCCCCCCCCCCCCCCC(=O)OC[C@H](COP(=O)([O-])OCC[N+](C)(C)C)OC(=O)CCNC(=O)Cc1c(C)n(C(=O)c2ccc(Cl)cc2)c2ccc(OC)cc12` [Indo n=2, 1-Stearoyl-2-{3-[1-(p-chlorobenzoyl)-5-methoxy-2-methyl-3-indolylacetamido]propanoyl}-sn-glycero-3-phosphocholine], the solubility in data set [1] (saline, saline or isotonic) is approximately 1500 µg/mL (≈ 1610 µM); in data set [1] (water) it was less than 900 µg/mL. The molecule also gave a pH-dependent lipophilicity (logD) in data set [2] of 2.5.

In the case of `CCCCCCCCCCCCCCCCCC(=O)OC[C@H](COP(=O)([O-])OCC[N+](C)(C)C)OC(=O)CCCCCCCNC(=O)Cc1ccccc1Nc1c(Cl)cccc1Cl` [DCF n=7, 1-Stearoyl-2-{8-[2-(2,6-dichloroanilino)phenylacetamido]octanoyl}-sn-glycero-3-phosphocholine], the solubility in data set [1] (saline, saline or isotonic) came out at 1 µg/mL (≈ 1.06 µM); in data set [1] (water), 1 µg/mL (≈ 1.06 µM). Further, in data set [2], the “log Pc (octanol/saline distribution coefficient)” value is “≧3”.

In the case of `CCCCCCCCCCCCCCCCCC(=O)OC[C@H](COP(=O)([O-])OCC[N+](C)(C)C)OC(=O)CCCNC(=O)[C@@H](C)c1ccc2cc(OC)ccc2c1` [Nap n=3, 1-Stearoyl-2-{4-[(S)-6-methoxy-α-methyl-2-naphtaleneacetamido]butanoyl}-sn-glycero-3-phosphocholine], in data set [1], the “Solubility (mg/ml) Saline” value was 0.09^a) mg/ml and the “Solubility (mg/ml) Water” value is 0.12^a) mg/ml. Also, in data set [2], the “log Pc (octanol/saline distribution coefficient)” value is “≧3”.

As to `CCCCCCCCCCCCCCCCCC(=O)OC[C@H](COP(=O)([O-])OCC[N+](C)(C)C)OC(=O)CCCCNC(=O)Cc1c(C)n(C(=O)c2ccc(Cl)cc2)c2ccc(OC)cc12` [Indo n=4, 1-Stearoyl-2-{5-[1-(p-chlorobenzoyl)-5-methoxy-2-methyl-3-indolylacetamido]valeroyl}-sn-glycero-3-phosphocholine], the solubility in data set [1] (saline, saline or isotonic) was approximately 100 µg/mL (≈ 104 µM); in data set [1] (water), less than 10 µg/mL. In data set [2], the “log Pc (octanol/saline distribution coefficient)” value is recorded as 2.9.

Consider `CCCCCCCCCCCCCCCCCC(=O)OC[C@H](COP(=O)([O-])OCC[N+](C)(C)C)OC(=O)CCCNC(=O)Cc1ccccc1Nc1c(Cl)cccc1Cl` [DCF n=3, 1-Stearoyl-2-{4-[2-(2,6-dichloroanilino)phenylacetamido]butanoyl}-sn-glycero-3-phosphocholine], for which the solubility in data set [1] (saline, saline or isotonic) turned out to be 2 µg/mL (≈ 2.25 µM); in data set [1] (water) it was 2 µg/mL (≈ 2.25 µM). The “Cleavage of diclofenac from its lipid conjugate” value in data set [3] and in data set [4] was “significant cleavage” throughout. Besides, the “Cleavage of prodrug to DFC on cooling to 4° C.” value in data set [3] (parallel set of incubations in homogenates at 4° C. (data not shown)) is “completely inhibited”. The “log Pc (octanol/saline distribution coefficient)” value in data set [2] is listed as “≧3”.

As to `CCCCCCCCCCCCCCCCCC(=O)OC[C@H](COP(=O)([O-])OCC[N+](C)(C)C)OC(=O)CCCCCNC(=O)C(C)c1ccc(CC(C)C)cc1` (stereo partly drawn) [Ibu n=5, 1-Stearoyl-2-{6-[α-methyl-4-(2-methylpropyl)benzeneacetamido]hexanoyl}-sn-glycero-3-phosphocholine], the solubility in data set [1] (saline, saline or isotonic) amounted to 500 µg/mL (≈ 606 µM); in data set [1] (water), 500 µg/mL (≈ 606 µM). Further, the “log Pc (octanol/saline distribution coefficient)” value in data set [2] is “≧3”.

As for `CCCCCCCCCCCCCCCCCC(=O)OC[C@H](COP(=O)([O-])OCC[N+](C)(C)C)OC(=O)CCCCNC(=O)Cc1ccccc1Nc1c(Cl)cccc1Cl` [DCF n=4, 1-Stearoyl-2-{5-[2-(2,6-dichloroanilino)phenylacetamido]valeroyl}-sn-glycero-3-phosphocholine], the solubility in data set [1] (saline, saline or isotonic) amounted to 2 µg/mL (≈ 2.22 µM); in data set [1] (water) it was 2 µg/mL (≈ 2.22 µM). For the same molecule, the “log Pc (octanol/saline distribution coefficient)” value in data set [2] was “≧3”.

On to `CCCCCCCCCCCCCCCCCC(=O)OC[C@H](COP(=O)([O-])OCC[N+](C)(C)C)OC(=O)CCCNC(=O)Cc1c(C)n(C(=O)c2ccc(Cl)cc2)c2ccc(OC)cc12` [Indo n=3, 1-Stearoyl-2-{4-[1-(p-chlorobenzoyl)-5-methoxy-2-methyl-3-indolylacetamido]butanoyl}-sn-glycero-3-phosphocholine], for which the solubility is approximately 1500 µg/mL (≈ 1580 µM) in data set [1] (saline, saline or isotonic) and less than 600 µg/mL in data set [1] (water). In addition, the logD in data set [2] turned out to be 2.5.

With `CCCCCCCCCCCCCCCCCC(=O)OC[C@H](COP(=O)([O-])OCC[N+](C)(C)C)OC(=O)CCCCCCCCCCCNC(=O)Cc1ccccc1Nc1c(Cl)cccc1Cl` [DCF n=11, 1-Stearoyl-2-{12-[2-(2,6-dichloroanilino)phenylacetamido]dodecanoyl}-sn-glycero-3-phosphocholine], the solubility in data set [1] (saline, saline or isotonic) was less than 1 µg/mL; in data set [1] (water) it was less than 1 µg/mL. In data set [2], the “log Pc (octanol/saline distribution coefficient)” value is given as “≧2.5”.

In data set [1] (water), `CCCCCCCCCCCCCCCCCC(=O)OC[C@H](COP(=O)([O-])OCC[N+](C)(C)C)OC(=O)CCCCCCCNC(=O)Cc1c(C)n(C(=O)c2ccc(Cl)cc2)c2ccc(OC)cc12` [Indo n=7, 1-Stearoyl-2-{8-[1-(p-chlorobenzoyl)-5-methoxy-2-methyl-3-indolylacetamido]octanoyl}-sn-glycero-3-phosphocholine] registered a solubility of approximately 5 µg/mL (≈ 4.98 µM). This molecule registered a logD in data set [2] of 3.7.

As to `CCCCCCCCCCCCCCCCCC(=O)OC[C@H](COP(=O)([O-])OCC[N+](C)(C)C)OC(=O)CCCCCNC(=O)[C@@H](C)c1ccc2cc(OC)ccc2c1` [Nap n=5, 1-Stearoyl-2-{6-[(S)-6-methoxy-α-methyl-2-naphtaleneacetamido]hexanoyl}-sn-glycero-3-phosphocholine], in data set [1], the “Solubility (mg/ml) Saline” value is listed as 0.2^a) mg/ml and the “Solubility (mg/ml) Water” value was 0.2^a) mg/ml. In addition, the “log Pc (octanol/saline distribution coefficient)” value in data set [2] is reported as “≧3”.

As for `CCCCCCCCCCCCCCCCCC(=O)OC[C@H](COP(=O)([O-])OCC[N+](C)(C)C)OC(=O)CCNC(=O)[C@@H](C)c1ccc2cc(OC)ccc2c1` [Nap n=2, 1-Stearoyl-2-{3-[(S)-6-methoxy-α-methyl-2-naphtaleneacetamido]propanoyl}-sn-glycero-3-phosphocholine], in data set [1], the “Solubility (mg/ml) Saline” value is reported as 0.06^a) mg/ml and the “Solubility (mg/ml) Water” value is listed as 0.01^a) mg/ml. Moreover, the “log Pc (octanol/saline distribution coefficient)” value in data set [2] is reported as “≧3”.

Regarding `CCCCCCCCCCCCCCCCCC(=O)OC[C@H](COP(=O)([O-])OCC[N+](C)(C)C)OC(=O)CCNC(=O)C(C)c1ccc(CC(C)C)cc1` (stereo partly drawn) [Ibu n=2, 1-Stearoyl-2-{3-[α-methyl-4-(2-methylpropyl)benzeneacetamido]propanoyl}-sn-glycero-3-phosphocholine], the solubility was determined as 300 µg/mL (≈ 383 µM) in data set [1] (saline, saline or isotonic) and 200 µg/mL (≈ 255 µM) in data set [1] (water). In data set [2], this molecule registered a log distribution coefficient (logD) of 1.8.
